Test in all cases: biochemical
Parameters in all cases: Eurofins recombinant human kinase profiling, remaining kinase activity as % of control, 10 uM ATP
Holding throughout (conditions): ATP 10 uM; read-out: %Ctrl@10 μM

In one assay the target is CDK3/cyclinE(h) (Homo sapiens, UniProt Q00526). The procedure, abridged:
(§1)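 Activity measured in a commercial panel of 401 recombinant human protein kinases run as a kinase profiling service.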

The target of the next assay is T1, FAK(h) (Homo sapiens, UniProt Q05397).
T1 construct: gene PTK2
The procedure, abridged: as §1

Another assay has as its target VRK2(h) (Homo sapiens, UniProt Q86Y07). The essentials:
as §1

The target in a further assay is NEK4(h) (Homo sapiens, UniProt P51957). The essentials: as §1
In the next assay the target is CDK2/cyclinA(h) (Homo sapiens, UniProt P24941). The procedure, abridged:
as §1

Another assay has as its target T2, MKK3(h) (Homo sapiens, UniProt P46734).
T2 construct: gene MAP2K3
The essentials: as §1

The target of a further assay is T3, TAO3(h) (Homo sapiens, UniProt Q9H2K8).
T3 construct: gene TAOK3
The procedure, abridged:
as §1

The target of another assay is FGFR3(h) (Homo sapiens, UniProt P22607). The procedure, abridged: as §1
For a further assay, the target named is T4, Rsk1(h) (Homo sapiens, UniProt Q15418).
T4 construct: gene RPS6KA1
The essentials: as §1

For the next assay, the target named is T5, Rsk4(h) (Homo sapiens, UniProt Q9UK32).
T5 construct: gene RPS6KA6
The procedure, abridged: as §1

A further assay deals with T6, B-Raf(h) (Homo sapiens, UniProt P15056).
T6 construct: gene BRAF
The procedure, abridged:
as §1

Another assay deals with T7, PTK5(h) (Homo sapiens, UniProt P42685).
T7 construct: gene FRK
T7 sequence (P42685 whole entry): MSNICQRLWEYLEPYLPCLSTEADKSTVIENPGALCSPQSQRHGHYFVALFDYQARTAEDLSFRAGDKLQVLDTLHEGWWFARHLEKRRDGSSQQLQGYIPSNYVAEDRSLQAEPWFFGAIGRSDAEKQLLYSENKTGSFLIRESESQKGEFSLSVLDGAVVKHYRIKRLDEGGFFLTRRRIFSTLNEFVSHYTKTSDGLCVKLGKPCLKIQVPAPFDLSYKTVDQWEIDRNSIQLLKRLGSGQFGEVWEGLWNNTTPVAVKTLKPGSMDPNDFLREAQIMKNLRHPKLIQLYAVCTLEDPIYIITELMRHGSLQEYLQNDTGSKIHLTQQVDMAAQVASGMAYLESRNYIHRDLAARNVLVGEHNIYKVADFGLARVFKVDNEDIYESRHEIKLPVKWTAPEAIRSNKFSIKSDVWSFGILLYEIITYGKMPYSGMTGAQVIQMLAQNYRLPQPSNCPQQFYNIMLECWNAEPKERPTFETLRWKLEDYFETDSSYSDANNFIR
The essentials:
as §1

Another assay addresses Flt3(h) (Homo sapiens, UniProt P36888). The procedure, abridged: as §1
A further assay deals with T8, ChaK1(h) (Homo sapiens, UniProt Q96QT4).
T8 construct: gene TRPM7
T8 sequence (Q96QT4 whole entry): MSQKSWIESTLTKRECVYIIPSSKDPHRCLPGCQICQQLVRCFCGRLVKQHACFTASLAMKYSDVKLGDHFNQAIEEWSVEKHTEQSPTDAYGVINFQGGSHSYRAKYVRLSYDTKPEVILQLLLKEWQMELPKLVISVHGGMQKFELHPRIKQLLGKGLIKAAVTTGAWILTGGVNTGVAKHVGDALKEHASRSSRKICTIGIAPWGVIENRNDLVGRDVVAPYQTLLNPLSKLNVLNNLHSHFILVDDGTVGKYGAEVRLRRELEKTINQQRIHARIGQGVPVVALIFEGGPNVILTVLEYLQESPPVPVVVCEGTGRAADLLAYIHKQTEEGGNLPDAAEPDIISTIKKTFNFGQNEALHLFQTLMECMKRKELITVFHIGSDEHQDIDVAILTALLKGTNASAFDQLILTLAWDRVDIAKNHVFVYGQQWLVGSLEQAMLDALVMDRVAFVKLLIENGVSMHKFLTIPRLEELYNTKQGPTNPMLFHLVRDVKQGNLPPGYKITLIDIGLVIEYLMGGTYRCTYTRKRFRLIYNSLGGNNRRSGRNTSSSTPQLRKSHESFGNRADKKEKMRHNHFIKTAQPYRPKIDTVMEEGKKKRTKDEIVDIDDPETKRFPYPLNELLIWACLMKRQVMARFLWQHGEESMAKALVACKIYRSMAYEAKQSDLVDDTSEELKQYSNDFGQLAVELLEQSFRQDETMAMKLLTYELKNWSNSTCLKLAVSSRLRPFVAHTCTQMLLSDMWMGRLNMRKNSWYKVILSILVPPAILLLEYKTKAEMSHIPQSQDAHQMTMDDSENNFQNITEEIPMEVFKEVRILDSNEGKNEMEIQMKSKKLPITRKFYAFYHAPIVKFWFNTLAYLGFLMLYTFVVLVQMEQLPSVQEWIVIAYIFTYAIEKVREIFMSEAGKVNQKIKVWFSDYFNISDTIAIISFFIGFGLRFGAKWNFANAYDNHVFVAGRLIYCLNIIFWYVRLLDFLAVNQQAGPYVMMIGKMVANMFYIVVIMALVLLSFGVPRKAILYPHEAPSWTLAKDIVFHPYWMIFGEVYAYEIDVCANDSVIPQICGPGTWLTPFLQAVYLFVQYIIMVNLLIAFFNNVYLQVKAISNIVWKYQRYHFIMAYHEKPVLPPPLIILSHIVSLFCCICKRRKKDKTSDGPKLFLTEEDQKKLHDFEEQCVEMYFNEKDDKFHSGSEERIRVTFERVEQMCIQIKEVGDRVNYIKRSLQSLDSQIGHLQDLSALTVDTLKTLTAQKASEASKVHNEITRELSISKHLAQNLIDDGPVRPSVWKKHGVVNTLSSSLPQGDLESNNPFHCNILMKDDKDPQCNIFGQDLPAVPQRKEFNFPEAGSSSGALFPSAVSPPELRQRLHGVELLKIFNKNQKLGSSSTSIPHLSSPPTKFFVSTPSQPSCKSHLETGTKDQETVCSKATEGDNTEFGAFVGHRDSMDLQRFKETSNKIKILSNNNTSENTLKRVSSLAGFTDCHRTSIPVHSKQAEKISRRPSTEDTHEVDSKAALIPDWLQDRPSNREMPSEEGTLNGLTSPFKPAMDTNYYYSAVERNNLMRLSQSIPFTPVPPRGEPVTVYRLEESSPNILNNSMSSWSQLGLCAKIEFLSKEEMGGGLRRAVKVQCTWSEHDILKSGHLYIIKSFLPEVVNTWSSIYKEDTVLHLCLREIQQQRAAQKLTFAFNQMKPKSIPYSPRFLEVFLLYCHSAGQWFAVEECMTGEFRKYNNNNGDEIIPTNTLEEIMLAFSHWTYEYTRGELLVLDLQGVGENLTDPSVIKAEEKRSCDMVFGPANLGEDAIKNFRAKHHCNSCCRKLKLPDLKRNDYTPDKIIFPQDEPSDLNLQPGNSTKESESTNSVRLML
The procedure, abridged: as §1

The target of a further assay is T9, PKBβ(h) (Homo sapiens, UniProt P31751).
T9 construct: gene AKT2
The procedure, abridged:
as §1

The target in the next assay is SGK3(h) (Homo sapiens, UniProt Q96BR1). The procedure, abridged:
as §1

The target of another assay is T10, Snk(h) (Homo sapiens, UniProt Q9NYY3).
T10 construct: gene PLK2
The procedure, abridged:
as §1

The target of another assay is T11, ACTR2(h) (Homo sapiens, UniProt P27037).
T11 construct: gene ACVR2A
T11 sequence (P27037 whole entry): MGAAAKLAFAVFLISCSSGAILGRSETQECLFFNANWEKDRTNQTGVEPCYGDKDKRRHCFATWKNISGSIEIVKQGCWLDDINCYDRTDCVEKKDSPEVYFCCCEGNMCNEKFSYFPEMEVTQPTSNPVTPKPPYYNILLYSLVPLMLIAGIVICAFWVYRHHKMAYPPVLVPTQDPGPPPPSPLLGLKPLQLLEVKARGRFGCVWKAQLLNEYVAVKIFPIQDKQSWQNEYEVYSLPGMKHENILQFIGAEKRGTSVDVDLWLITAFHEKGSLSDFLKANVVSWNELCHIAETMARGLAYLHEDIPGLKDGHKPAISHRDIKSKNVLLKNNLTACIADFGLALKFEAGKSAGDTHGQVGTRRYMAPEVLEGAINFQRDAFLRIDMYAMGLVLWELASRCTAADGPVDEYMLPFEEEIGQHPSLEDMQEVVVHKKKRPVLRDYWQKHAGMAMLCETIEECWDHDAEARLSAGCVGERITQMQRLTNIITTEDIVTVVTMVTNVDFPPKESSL
The essentials:
as §1

The next assay has as its target T12, ZAK(h) (Homo sapiens, UniProt Q9NYL2).
T12 construct: gene MAP3K20
The procedure, abridged: as §1

In a further assay the target is PAK1(h) (Homo sapiens, UniProt Q13153). The procedure, abridged:
as §1

The target in a further assay is TGFBR1(h) (Homo sapiens, UniProt P36897). The essentials:
as §1

For another assay, the target named is T13, ASK1(h) (Homo sapiens, UniProt Q99683).
T13 construct: gene MAP3K5
The essentials: as §1

A further assay deals with T14, CHK2(I157T)(h) (Homo sapiens, UniProt O96017, I157T).
T14 construct: gene CHEK2
The essentials:
as §1

Experimental findings from paper PMC9719519, “Non-classical ferroptosis inhibition by a small molecule targeting PHB2” (Nature Communications, 2022) are described below.

CDK3/cyclinE(h), sequence (Q00526 whole entry): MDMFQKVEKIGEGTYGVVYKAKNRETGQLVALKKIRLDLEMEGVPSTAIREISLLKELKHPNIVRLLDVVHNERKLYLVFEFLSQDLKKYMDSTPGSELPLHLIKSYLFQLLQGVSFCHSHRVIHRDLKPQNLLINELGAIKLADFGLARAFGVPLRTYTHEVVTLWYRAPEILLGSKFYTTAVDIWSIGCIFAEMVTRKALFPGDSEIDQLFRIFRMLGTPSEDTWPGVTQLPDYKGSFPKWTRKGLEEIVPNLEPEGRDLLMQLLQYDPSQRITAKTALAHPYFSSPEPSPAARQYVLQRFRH
CDK3/cyclinE(h), sequence (P24864 whole entry partner): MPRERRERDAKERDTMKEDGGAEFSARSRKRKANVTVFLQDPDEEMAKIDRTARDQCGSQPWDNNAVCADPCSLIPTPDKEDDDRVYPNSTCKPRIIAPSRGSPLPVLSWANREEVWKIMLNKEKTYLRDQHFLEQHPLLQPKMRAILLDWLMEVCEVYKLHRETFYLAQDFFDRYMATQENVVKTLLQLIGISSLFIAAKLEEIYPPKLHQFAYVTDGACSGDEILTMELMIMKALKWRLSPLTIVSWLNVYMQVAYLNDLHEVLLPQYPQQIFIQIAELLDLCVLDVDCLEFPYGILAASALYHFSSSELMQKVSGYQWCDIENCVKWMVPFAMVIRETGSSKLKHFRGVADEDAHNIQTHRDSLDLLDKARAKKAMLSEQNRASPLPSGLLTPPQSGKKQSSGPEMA
TGFBR1(h), sequence (P36897 whole entry): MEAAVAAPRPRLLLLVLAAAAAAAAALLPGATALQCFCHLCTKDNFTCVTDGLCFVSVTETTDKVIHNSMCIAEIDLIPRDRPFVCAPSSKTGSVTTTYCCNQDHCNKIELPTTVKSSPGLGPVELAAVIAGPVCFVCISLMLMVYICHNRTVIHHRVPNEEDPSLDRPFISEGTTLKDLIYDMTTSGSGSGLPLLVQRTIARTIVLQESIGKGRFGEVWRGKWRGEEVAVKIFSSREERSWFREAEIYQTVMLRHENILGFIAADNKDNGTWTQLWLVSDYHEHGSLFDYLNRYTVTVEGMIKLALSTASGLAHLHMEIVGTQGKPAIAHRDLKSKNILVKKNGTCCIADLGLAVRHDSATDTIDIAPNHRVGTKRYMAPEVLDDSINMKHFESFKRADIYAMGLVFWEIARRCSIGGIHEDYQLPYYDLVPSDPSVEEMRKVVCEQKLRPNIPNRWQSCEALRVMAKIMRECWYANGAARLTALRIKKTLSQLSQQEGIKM
T12 sequence (Q9NYL2 whole entry): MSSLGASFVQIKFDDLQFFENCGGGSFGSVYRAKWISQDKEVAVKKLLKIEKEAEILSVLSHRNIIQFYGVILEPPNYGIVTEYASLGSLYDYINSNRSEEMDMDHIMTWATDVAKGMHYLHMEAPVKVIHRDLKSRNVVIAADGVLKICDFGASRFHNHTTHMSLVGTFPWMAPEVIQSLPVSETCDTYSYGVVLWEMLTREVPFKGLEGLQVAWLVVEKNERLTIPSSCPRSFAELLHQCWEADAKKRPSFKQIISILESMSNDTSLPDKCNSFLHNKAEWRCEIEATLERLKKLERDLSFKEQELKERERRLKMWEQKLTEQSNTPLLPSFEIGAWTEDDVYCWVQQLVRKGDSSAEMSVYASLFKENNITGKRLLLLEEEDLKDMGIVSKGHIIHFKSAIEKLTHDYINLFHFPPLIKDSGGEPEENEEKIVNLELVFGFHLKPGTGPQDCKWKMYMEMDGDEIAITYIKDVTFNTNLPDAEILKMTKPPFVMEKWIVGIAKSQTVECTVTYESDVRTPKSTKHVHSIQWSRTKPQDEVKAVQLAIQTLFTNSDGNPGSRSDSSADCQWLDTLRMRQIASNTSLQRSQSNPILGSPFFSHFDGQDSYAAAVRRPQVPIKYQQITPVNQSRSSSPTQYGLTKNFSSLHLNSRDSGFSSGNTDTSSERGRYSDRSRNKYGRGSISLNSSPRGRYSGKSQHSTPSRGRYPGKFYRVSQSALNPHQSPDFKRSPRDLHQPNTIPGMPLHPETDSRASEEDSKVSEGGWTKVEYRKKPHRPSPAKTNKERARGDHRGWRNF

On to `C1=C(c2nc(-c3cnn(C4CCNCC4)c3)cn3cc(-c4ccccc4)nc23)CCOC1` [YL-939], for which the remaining activity at 10 µM at CDK3/cyclinE(h) was found to be 102%; on FAK(h) it was 112%; at VRK2(h) it was 92%; on NEK4(h), 118%; on CDK2/cyclinA(h), 95%; at MKK3(h) it was 107%. For the same molecule, the remaining activity at 10 µM on TAO3(h) turned out to be 102%; at FGFR3(h), 83%; at Rsk1(h) it was 94%; at Rsk4(h), 73%; at B-Raf(h), 84%; at PTK5(h) it was 75%. The remaining activity at 10 µM at Flt3(h) was 86%; at ChaK1(h), 92%; at PKBβ(h) it was 87%; on SGK3(h), 83%; on Snk(h), 112%; on ACTR2(h), 94%. In addition, the remaining activity at 10 µM was determined as 85% at ZAK(h); 85% on PAK1(h); 101% at TGFBR1(h); 110% at ASK1(h); 87% at CHK2(I157T)(h).
